Data set [1] relates to A2780-shFANCD2 cells. Description: Clonogenic survival of HR-deficient cells with POLQ depletion. The class given is cell-based, human. As to conditions: A2780-shFANCD2 with shRNA targeting POLQ. As to the method:
(§1) For assessing cellular cytotoxicity, cells were seeded into 96-well plates at a density of 1000 cells/well. Cytotoxic drugs were serially diluted in media and added to the wells. At 72 hours, CellTiter-Glo reagent (Promega) was added to the wells and the plates were scanned using a luminescence microplate reader. Survival at each drug concentration was plotted as a percentage of the survival in drug-free media. Each data point on the graph represents the average of three measurements, and the error bars represent the standard deviation. For clonogenic survival, 1000 cells/well were seeded into six-well plates and treated with cytotoxic drugs the next day. For MMC and PARPi, cells were treated continuously with indicated drug concentrations. For CDDP, cells were treated for 24 hours and cultured for 14 days in drug-free media. Colony formation was scored 14 days after treatment using 0.5% (w/v) crystal violet in methanol. Survival curves were expressed as a percentage ±s.e.m. over three independent experiments of colonies formed relative to the DMSO-treated control.

The test system of data set [2] is A2780 cells. Description: 3-day survival assay with POLQ inhibition. The class given is cell-based, human. The note with it: 3 days of continuous exposure to ATM inhibitor. The protocol:
as §1

Data set [3] deals with 293T cells. Description: 3-day survival assay with POLQ siRNA. The data set is classed as cell-based, human. The protocol: as §1
Data set [4] addresses recombinant human GST-RAD51 (UniProt Q06609).
Data set [5] concerns the target T1, Flag-tagged POLQ-1633-Cter (human, UniProt O75417 1633-2590).
T1 construct: range 1633-Cter; Stably expressed in HeLa cells; not shown: Flag tag
T1 sequence (looked up): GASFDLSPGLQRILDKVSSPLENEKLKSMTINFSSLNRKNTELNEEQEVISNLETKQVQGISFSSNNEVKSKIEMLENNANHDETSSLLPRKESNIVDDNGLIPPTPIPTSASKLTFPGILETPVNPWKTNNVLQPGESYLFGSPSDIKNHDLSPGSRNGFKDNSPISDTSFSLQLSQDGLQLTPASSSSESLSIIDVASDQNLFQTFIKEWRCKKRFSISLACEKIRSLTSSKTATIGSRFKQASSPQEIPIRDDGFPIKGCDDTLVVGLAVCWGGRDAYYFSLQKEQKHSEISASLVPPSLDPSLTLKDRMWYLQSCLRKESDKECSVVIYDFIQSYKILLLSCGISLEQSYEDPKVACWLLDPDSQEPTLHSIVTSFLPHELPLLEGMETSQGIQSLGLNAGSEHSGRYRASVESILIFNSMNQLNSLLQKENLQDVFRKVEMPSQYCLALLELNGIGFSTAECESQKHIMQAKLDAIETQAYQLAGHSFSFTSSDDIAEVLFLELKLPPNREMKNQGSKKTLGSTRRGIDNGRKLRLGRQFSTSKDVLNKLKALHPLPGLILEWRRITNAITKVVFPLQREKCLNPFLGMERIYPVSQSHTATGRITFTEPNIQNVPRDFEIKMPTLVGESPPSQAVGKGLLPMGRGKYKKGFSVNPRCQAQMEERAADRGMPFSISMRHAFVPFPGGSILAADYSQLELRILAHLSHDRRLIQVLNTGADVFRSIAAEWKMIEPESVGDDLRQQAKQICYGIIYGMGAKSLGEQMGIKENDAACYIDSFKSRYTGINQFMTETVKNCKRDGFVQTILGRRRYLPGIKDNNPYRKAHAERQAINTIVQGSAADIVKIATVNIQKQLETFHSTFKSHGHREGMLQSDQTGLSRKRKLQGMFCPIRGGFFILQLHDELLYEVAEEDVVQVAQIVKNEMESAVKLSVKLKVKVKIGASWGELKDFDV
Description: anti-Flag co-immunoprecipitation from HeLa cells, immunoblot. In general terms: In western blotting, separated proteins are transferred to a membrane and probed.

Turning to `N.N.[Cl][Pt][Cl]` [CDDP, cis-diamminedichloroplatinum(II)], in data set [1], the “survival of HR-deficient cells exposed to drug, effect of POLQ depletion” value is “reduced the survival”.
For `O=c1cc(-c2cccc3c2Sc2ccccc2S3)oc(N2CCOCC2)c1` [Ku55933], the “survival of A2780 cells, effect of POLQ inhibition” value in data set [2] is given as “reduces the survival”.
Regarding `CO[C@@]12[C@H](COC(N)=O)C3=C(C(=O)C(C)=C(N)C3=O)N1C[C@@H]1N[C@@H]12` [MMC, Mitomycin C], the “survival of HR-deficient cells exposed to drug, effect of POLQ depletion” value in data set [1] is reported as “reduced the survival”. Moreover, in data set [3], the “cellular sensitivity to drug after depletion of POLQ” value is given as “hypersensitivity”.
On to “purified recombinant POLQ fragment ΔPol2 (amino acids 1 to 1000), wild-type”, for which the RAD51-ssDNA nucleofilament assembly entry in data set [4] is on record as “RAD51-ssDNA assembly was reduced by wild-type ΔPol2”.

B1: endogenous RAD51 (other, UniProt Q06609 2-339, looked up)
chain: AMQMQLEANADTSVEEESFGPQPISRLEQCGINANDVKKLEEAGFHTVEAVAYAPKKELINIKGISEAKADKILAEAAKLVPMGFTTATEFHQRRSEIIQITTGSKELDKLLQGGIETGSITEMFGEFRTGKTQICHTLAVTCQLPIDRGGGEGKAMYIDTEGTFRPERLLAVAERYGLSGSDVLDNVAYARAFNTDHQTQLLYQASAMMVESRYALLIVDSATALYRTDYSGRGELSARQMHLARFLRMLLRLADEFGVAVVITNQVVAQVDGAAMFAADPKKPIGGNIIAHASTTRLYLRKGRGETRICKIYDSPCLPEAEAMFAINADGVGDAKD
notes: Endogenous protein in cell lysates
For the molecule B1, the binding result in data set [5] is listed as “no binding”.
